Where two headings read alike, the source gives them in different places.
Key:
[1] = tested on: human prostate cancer; details: 31st day from tumor inoculation; 30 consecutive days; AY/NY 0.3 ml oral once per day, CTX 30 mg/kg/day s.c.
Source text: (§1) The animals used to generate the prostate cancer cells for the experiments were male nude mouse (obtainable from the Chinese Academy of Military Medical Sciences, Beijing, China) with an average weight of about 15 to 18 gram. Fresh prostate tumor cells (obtainable from the Cancer Institute, Chinese Academy of Medical Sciences, Beijing, China) were divided into sections of size 1-2 mm^3 and immediately stored in […] suspension after removal from the human patient.
The mouse were starved for 24 hours before the surgery. The animals were generally anaesthetized. The barbiturates was first diluted in saline and then injected at 0.3 to 0.4 ml per animal, or 30 mg per kg body weight, into the abdomen of the mice. Under sterile conditions, a 1 cm long opening in the body cavity was cut along the right rib of the mice for engraftment of the tumor. About 10^6 units of tumor cells (about 2 mg tumor pieces per ml culture medium) were transplanted. Afterwards, the opening was sutured and the mice were put back into the cage. The animals were allowed to grow for three to five weeks or when the tumor grows to about 1 to 2 cm^3 in size. […]
The mice received the biological compositions, untreated yeast cells, CTX or saline on the same day as the tumor cells were transplanted. […] The weight of the mice and the weight of the tumor were determined by standard techniques.

[2] = tested on: human prostate cancer; details: for Number of live animals remaining in the groups after 30 days of treatment: 30 mice per group, 2CTX 45 mg/kg/day s.c.
Source text: as §1
The mouse were starved for 24 hours before the surgery. The animals were generally anaesthetized. The barbiturates was first diluted in saline and then injected at 0.3 to 0.4 ml per animal, or 30 mg per kg body weight, into the abdomen of the mice. Under sterile conditions, a 1 cm long opening in the body cavity was cut along the right rib of the mice for engraftment of the tumor. About 10^6 units of tumor cells (about 2 mg tumor pieces per ml culture medium) were transplanted. Afterwards, the opening was sutured and the mice were put back into the cage. The animals were allowed to grow for three to five weeks or when the tumor grows to about 1 to 2 cm^3 in size. […] The tumor was removed from a donor rat and minced aseptically in 4 ml of Hank's solution to form a cell suspension. About 10^6 units of tumor cells (about 0.2 ml cell suspension) were transplanted into a healthy batch of nude mice.
The survival time of mice after tumor injection and treatment was studied.
The biological composition comprising 10^8 cells per ml of activated and conditioned yeast cells of the strain Saccharomyces carlsbergensis Hansen strain AS2.440 was prepared by the methods described in Section 5.1 and subsections therein
The animals were prepared in a similar manner as described in Section 6.1.
The mice injected with tumor cells were kept for 2 weeks and then were divided into 4 experimental groups of ten mice per group and one control group. The four experimental groups were triplicated (i.e., using a total of 120 mice in the experimental groups). In group 2AY, the mice received 0.5 ml of the biological composition once per day. In group 2NY, the mice received 0.5 ml of the untreated yeast cells once per day. In group 2CTX, the mice were injected subcutaneously with 45 mg of cyclophosphamide (CTX) per kg body weight per day. In group 2CK1, the mice received 0.5 ml of physiological saline once per day.
The mice received the biological compositions, untreated yeast cells, CTX or saline on the same day as the tumor cells were transplanted. The mice in group 2CK2 also started receiving saline on the same day as the other four groups. The biological compositions, untreated yeast cells and saline were administered orally by a feeding tube and the CTX by subcutaneous injection for 30 consecutive days. The mice were observed over 6 months from the day of tumor inoculation and survival was recorded. The weight of the mice and the weight of the tumor were determined by standard techniques.

[3] = tested on: human prostate cancer; experiment: Example 6: tumor growth in nude mouse model of human prostate cancer (thiotepa comparator); format: in vivo; details: 31st day from tumor inoculation; 30 consecutive days; AY/NY 0.3 ml oral once per day, TSPA 1.5 mg/kg/day i.v.
Protocol: The human prostate cancer sample was carefully selected before, during, and after surgery in order to ensure transplant occurred at the equivalent position in the mouse. The prostate cancer sample was obtained from patients who have not received any radiation, chemotherapy, or immune enhancement treatment.
(§2) The animals were generally anaesthetized.
In group TSPA, the mice were injected intravenously with 1.5 mg of thiotepa (TSPA) per kg body weight per day.

[4] = tested on: human prostate cancer; experiment: Example 7: survival time in nude mouse model of human prostate cancer (thiotepa comparator); format: in vivo; details: for Number of live animals remaining in the groups after 30 days of treatment: 30 mice per group
Protocol: as §2
In group 2TSPA, the mice were injected intravenously with 2.2 mg of thiotepa (TSPA) per kg body weight per day.

[5] = mice that survived the 6 months observation, 2AY/2NY 0.5 ml oral daily, 2TSPA 2.2 mg/kg/day i.v., 30 days
[6] = mice that survived the 6 months observation, 2AY/2NY 0.5 ml oral daily, CTX 45 mg/kg/day s.c., 30 days

SMILES: O=P1(N(CCCl)CCCl)NCCCO1 (stereo not drawn) [CTX, cyclophosphamide]
- mean weight of mice and standard deviation [1]: 16.7 ± 1.7 g
- mean weight of tumor nodules and standard deviation [1]: 3.3 ± 1.7 g
- Number of live animals remaining in the groups after 30 days of treatment ([2]; 0 month after cessation of treatment, 2AY/2NY 0.5 ml oral daily): 30
- Number of live animals remaining in the groups after 30 days of treatment ([2]; 1 month after cessation of treatment, 2AY/2NY 0.5 ml oral daily): 30
- survival after six months from injection of tumor cells ([2]; 2NY 0.5 ml per day, 2CTX 45 mg/kg per day, 30 days): all died
- Number of live animals remaining in the groups after 30 days of treatment ([2]; 2 months after cessation of treatment, 2AY/2NY 0.5 ml oral daily): 30
- Number of live animals remaining in the groups after 30 days of treatment ([2]; 3 months after cessation of treatment, 2AY/2NY 0.5 ml oral daily): 27
- Number of live animals remaining in the groups after 30 days of treatment ([2]; 4 months after cessation of treatment, 2AY/2NY 0.5 ml oral daily): 22
- Number of live animals remaining in the groups after 30 days of treatment ([2]; 5 months after cessation of treatment, 2AY/2NY 0.5 ml oral daily): 17
- Number of live animals remaining in the groups after 30 days of treatment ([2]; 6 months after cessation of treatment, 2AY/2NY 0.5 ml oral daily): 0

SMILES: S=P(N1CC1)(N1CC1)N1CC1 [TSPA, thiotepa]
- mean weight of mice and standard deviation [3]: 16.2 ± 1.7 g
- mean weight of tumor nodules and standard deviation [3]: 2.4 ± 1.2 mg
- Number of live animals remaining in the groups after 30 days of treatment ([4]; 0 month after cessation of treatment, 2AY/2NY 0.5 ml oral daily, 2TSPA 2.2 mg/kg/day i.v.): 30
- Number of live animals remaining in the groups after 30 days of treatment ([4]; 1 month after cessation of treatment, 2AY/2NY 0.5 ml oral daily, 2TSPA 2.2 mg/kg/day i.v.): 30
- survival after six months from injection of tumor cells ([4]; 2NY 0.5 ml per day, 2TSPA 2.2 mg/kg per day, 30 days): all died
- Number of live animals remaining in the groups after 30 days of treatment ([4]; 2 months after cessation of treatment, 2AY/2NY 0.5 ml oral daily, 2TSPA 2.2 mg/kg/day i.v.): 30
- Number of live animals remaining in the groups after 30 days of treatment ([4]; 3 months after cessation of treatment, 2AY/2NY 0.5 ml oral daily, 2TSPA 2.2 mg/kg/day i.v.): 27
- Number of live animals remaining in the groups after 30 days of treatment ([4]; 4 months after cessation of treatment, 2AY/2NY 0.5 ml oral daily, 2TSPA 2.2 mg/kg/day i.v.): 17
- Number of live animals remaining in the groups after 30 days of treatment ([4]; 5 months after cessation of treatment, 2AY/2NY 0.5 ml oral daily, 2TSPA 2.2 mg/kg/day i.v.): 5
- Number of live animals remaining in the groups after 30 days of treatment ([4]; 6 months after cessation of treatment, 2AY/2NY 0.5 ml oral daily, 2TSPA 2.2 mg/kg/day i.v.): 0
- mean weight of mice and standard deviation [4, 5]: all animals dead
- mean weight of tumor nodules and standard deviation [4, 5]: all animals dead
- mean weight of mice and standard deviation [2, 6]: all animals dead
- mean weight of tumor nodules and standard deviation [2, 6]: all animals dead

Source: patent US20040253256A1, “Biological compositions and methods for treatment of prostate cancer” (priority 2003, published 2004)
